How the values were obtained:
LptB2FGC = assay: ATPase assay (molybdate), LptB2FGC proteoliposomes; format: biochemical, Acinetobacter baylyi; conditions: for Effect on ATPase activity: LptB2FGC liposomes, in presence of LPS
Procedure: (§1) Proteoliposomes were prepared as described previously. Aqueous E. coli polar lipid extract (Avanti Polar Lipids) (30 mg ml^−1) and aqueous LPS from E. coli EH100 (Ra mutant; Sigma) (2 mg ml^−1) were sonicated briefly for homogenization. For experiments testing the effect of LPS structure, we used LPS isolated from either GKM374 (BL21DE3 eptA::catR arnA::kanR eptC::gentR) or TXM418 (BL21DE3 eptA::catR arnA::FRT eptB::gentR lpxM::kanR) as described previously. A mixture of 20 mM Tris-HCl (pH 8.0), 150 mM NaCl, 7.5 mg ml^−1 of E. coli polar lipids, 0.5 mg ml^−1 of LPS and 0.25% DDM was prepared and kept on ice for 10 min. Purified LptB2FGC or LptB2FG was added to a final concentration of 0.86 μM and the mixture was left on ice for 20 min. The mixture was diluted 100-fold with cold 20 mM Tris-HCl (pH 8.0) and 150 mM NaCl and kept on ice for 20 min. The proteoliposomes were pelleted (300,000g, 2 h, 4 °C), resuspended in 20 mM Tris-HCl (pH 8.0) and 150 mM NaCl, diluted 100× and centrifuged (300,000g, 2 h, 4 °C). The pellets were resuspended in a mixture of 20 mM Tris-HCl (pH 8.0), 150 mM NaCl and 10% glycerol (250 μl per 100 μl of the original predilution solution), homogenized by sonication, flash frozen and stored at −80 °C until use.
ATPase assays were done using a modified molybdate method, as previously reported, with slight modifications. Assays used 30% proteoliposomes (by volume) in a mixture containing 50 mM Tris-HCl (pH 8.0), 500 mM NaCl, 10% glycerol and 2 mM MgCl2. Proteoliposome-containing reaction mixture was incubated with drug at room temperature for 10 min, as applicable. Reactions were initiated by the addition of ATP to a final concentration of 5 mM and run at 30 °C. Aliquots (5 µl) were taken at 0, 15, 30 and 45 min. Reactions were quenched with an equal volume of 12% SDS. The amounts of Pi were determined using a colorimetric method and potassium phosphate was used as a standard. Reagents were obtained from Sigma-Aldrich. After the addition of SDS, a mixture containing 10 µl of 30 mg ml^−1 of ascorbic acid, 0.5 N HCl, 5 mg ml^−1 of ammonium molybdate and 6% SDS was added. The samples were incubated at room temperature for 7 min and 15 µl of an aqueous solution containing 20 mg ml^−1 of sodium citrate tribasic dihydrate, 2 mg ml^−^1 of sodium arsenite and 2% (vol/vol) acetic acid was added. The absorbance at 850 nm was measured using a Spectramax Plus 384 (Molecular Devices) after 20 min. Error bars indicate the standard deviations of the average rates measured over three biological replicates.

LptB2FG = assay: ATPase assay (molybdate), LptB2FG proteoliposomes; format: biochemical, Acinetobacter baylyi; conditions: LptB2FG liposomes, in presence of LPS
Procedure: as §1
ATPase assays were done using a modified molybdate method, as previously reported, with slight modifications. Assays used 30% proteoliposomes (by volume) in a mixture containing 50 mM Tris-HCl (pH 8.0), 500 mM NaCl, 10% glycerol and 2 mM MgCl2. Proteoliposome-containing reaction mixture was incubated with drug at room temperature for 10 min, as applicable. Reactions were initiated by the addition of ATP to a final concentration of 5 mM and run at 30 °C. Aliquots (5 µl) were taken at 0, 15, 30 and 45 min. […] The amounts of Pi were determined using a colorimetric method and potassium phosphate was used as a standard. […] The absorbance at 850 nm was measured using a Spectramax Plus 384 (Molecular Devices) after 20 min. Error bars indicate the standard deviations of the average rates measured over three biological replicates.

LptB2FG-ΔTM-C = assay: ATPase assay (molybdate), LptB2FG-ΔTM-C proteoliposomes; format: biochemical, Acinetobacter baylyi; conditions: LptB2FG-ΔTM-C liposomes, in presence of LPS
[1] = biological target: His-tagged LptB2FG (ablLptB2FG) in the presence of LPS (Acinetobacter baylyi, UniProt Q6FFD6+Q6FFD7); assay: biochemical; format: binding
Procedure: The binding of radioligand [^3H]-RO7223280 to ablLptB2FG and ablLptB2FGC was measured by bead-based SPA. All steps were performed in SEC buffer (20 mM Tris pH 7.5, 300 mM NaCl, 5% glycerol, 0.5 mM TCEP, 0.05% DDM ± 10 µM E.coli J5 LPS(Rc) […] (Enzo Life Sciences)) and at 4 °C unless otherwise indicated. Purified protein was first incubated with Copper PVT HIS-tag beads (Perkin Elmer) for 1.5 h under gentle rotation. Twelve radioligand concentrations were added to the PVT–protein mix and incubated for another 30 min. […] The SPA plates were sealed (TopSeal, Perkin Elmer) and stored at 4 °C overnight. Before the measurement, plates were mixed on a shaker for 20 min, 750 rpm at room temperature and the seal was thoroughly wiped with antistatic spray to reduce electrostatic events. Scintillation data were recorded with a Topcount NXT C384, in the form of three independent replicates each consisting of three technical triplicates. Specific binding was calculated by subtracting non-specific binding raw counts from total binding raw counts. The dissociation constant Kd and standard deviation of the three independent replicates are reported and were calculated by the GraphPad Prism ‘One site – specific binding’ tool.
Displacement values were normalized by including nine wells containing […] (defined as 100% competition) and nine wells containing 8 uM radioligand only (defined as 0% competition). […] The Hill coefficient was used as a quality control metric (theoretically, nH = 1 for a 1:1 competitive inhibitor) and determined with the ‘[Inhibitor] vs. response -- Variable slope (four parameters)’ tool.

LptB2FGΔTM-LptC = assay: LPS release assay, LptB2FG-ΔTM-C; format: biochemical, Acinetobacter baylyi; conditions: complex lacking LptC TM helix
Procedure: as §1
LptC(ΔTM) was purified largely as previously described. Briefly, Bl21 (λDE3) E. coli cells containing pET22/42-LptC(ΔTM)-His7 were grown to an OD600 of approximately 0.6 at 37 °C in LB media containing 50 μg ml^−1 of carbenicillin. Cells were then induced with 50 μM IPTG; allowed to grow for 2 h; harvested and resuspended in lysis buffer (50 mM Tris pH 7.4, 300 mM NaCl, 0.1 mM EDTA). Lysozyme, DNaseI and PMSF were added to final concentrations of 100 µg ml^−1, 50 µg ml^−1 and 1 mM, respectively. Cells were homogenized and subjected to passage through an EmulsiFlex-C3 high-pressure cell disruptor three times. The cell lysate was centrifuged (10,000g, 10 min) and the supernatant was further centrifuged (100,000g, 1 h). […]
The amounts of release of LPS from proteoliposomes to LptA were measured as previously described. […]

Chain of His-tagged LptB2FG (ablLptB2FG) in the presence of LPS (Q6FFD6 entry or part of it): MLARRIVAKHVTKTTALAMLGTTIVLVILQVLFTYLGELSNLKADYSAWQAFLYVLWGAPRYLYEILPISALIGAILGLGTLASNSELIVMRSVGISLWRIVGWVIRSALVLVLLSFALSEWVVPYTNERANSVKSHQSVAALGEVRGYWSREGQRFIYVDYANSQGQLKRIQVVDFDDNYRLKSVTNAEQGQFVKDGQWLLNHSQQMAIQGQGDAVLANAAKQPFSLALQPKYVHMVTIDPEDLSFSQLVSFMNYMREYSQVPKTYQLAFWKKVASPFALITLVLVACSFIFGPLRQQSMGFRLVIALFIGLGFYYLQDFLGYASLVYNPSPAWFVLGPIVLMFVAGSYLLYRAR
Chain of His-tagged LptB2FG (ablLptB2FG) in the presence of LPS (Q6FC66 entry or part of it, further chain): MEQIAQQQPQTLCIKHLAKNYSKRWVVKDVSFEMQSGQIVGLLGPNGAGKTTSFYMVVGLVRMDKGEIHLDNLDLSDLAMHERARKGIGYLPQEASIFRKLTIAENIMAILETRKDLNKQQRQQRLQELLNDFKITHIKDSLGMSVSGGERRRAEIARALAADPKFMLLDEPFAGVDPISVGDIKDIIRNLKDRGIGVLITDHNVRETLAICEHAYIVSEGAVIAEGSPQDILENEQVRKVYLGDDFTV
Chain of His-tagged LptB2FG (ablLptB2FG) in the presence of LPS (Q6FFD7 entry or part of it): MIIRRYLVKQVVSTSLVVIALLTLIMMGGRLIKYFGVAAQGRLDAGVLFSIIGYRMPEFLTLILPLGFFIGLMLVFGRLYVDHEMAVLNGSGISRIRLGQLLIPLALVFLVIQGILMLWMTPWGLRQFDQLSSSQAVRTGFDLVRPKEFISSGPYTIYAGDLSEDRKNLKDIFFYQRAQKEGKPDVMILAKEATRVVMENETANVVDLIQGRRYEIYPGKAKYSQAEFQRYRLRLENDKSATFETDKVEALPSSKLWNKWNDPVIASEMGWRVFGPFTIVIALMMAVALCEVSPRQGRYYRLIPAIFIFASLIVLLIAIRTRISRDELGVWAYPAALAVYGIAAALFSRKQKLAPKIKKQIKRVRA

Compound: CN1C(=O)[C@H](CCCCN)NC(=O)[C@H](CCCN)NCc2cccnc2Sc2c(Cl)ccc(-c3ccc(N)nc3)c2CNC(=O)[C@@H]1Cc1c[nH]c2ccccc12 [Compound 1]
- Effect on ATPase activity with ΔLpxM LPS (LptB2FGC; LptB2FGC liposomes with LPS isolated from a ΔLpxM strain): resistant
- Effect on ATPase activity (LptB2FGC): increases the ATPase activity
- Effect on ATPase activity (LptB2FG): increases the ATPase activity
- Effect on ATPase activity (LptB2FG-ΔTM-C): increases the ATPase activity
- Ki [1]: 35 nM
- Inhibition of LPS transport to LptA (LptB2FGΔTM-LptC): inhibited

Compound: CN1C(=O)[C@H](CCCCN)NC(=O)[C@H](CCCN)NCc2cccnc2Sc2cccc(-c3ccc(C(=O)O)cc3)c2CNC(=O)[C@@H]1Cc1c[nH]c2ccccc12 [Compound 2, Zosurabalpin]
- Effect on ATPase activity (LptB2FGC): increases the ATPase activity
- Effect on ATPase activity (LptB2FG): increases the ATPase activity
- Effect on ATPase activity (LptB2FG-ΔTM-C): increases the ATPase activity
- Ki [1]: 35 nM
- Inhibition of LPS transport to LptA (LptB2FGΔTM-LptC): inhibited

Compound: CN1C(=O)[C@H](CCCCN)NC(=O)[C@H](CCCN)NCc2cccnc2Sc2c(Cl)ccc(Cl)c2CNC(=O)[C@@H]1Cc1c[nH]c2ccccc12 [Compound 3]
- Effect on ATPase activity (LptB2FGC): does not affect the ATPase
- Effect on ATPase activity (LptB2FG): increases the ATPase activity
- Effect on ATPase activity (LptB2FG-ΔTM-C): increases the ATPase activity
- Ki [1]: 56 nM
- Inhibition of LPS transport to LptA (LptB2FGΔTM-LptC): inhibited
